From patent US11744898B2, “Multi-arm polymer conjugates of TLR agonist compounds and related immunotherapeutic treatment methods” (Nektar Therapeutics, priority 2017, dated 2023)
Like-named read-outs stand apart in the source and are kept apart here.

Assays:
TLR7/8 = test: TLR7/8-dependent cytokine production in plasma after single 10 μg intratumoral administration, CT26 tumor bearing mice; type: in vivo, Balb/c mice
Method: Hank's Balanced Salt Solution) was administered intratumorally to Balb/c mice bearing CT26 tumor. […] (Conjugate doses and concentrations are expressed based on TLR 7/8 agonist (e.g., resiquimod or other TLR 7/8 agonist) content, wherein the mass of the TLR 7/8 agonist is expressed independent of PEG mass). Plasma was collected at pre-determined time points for analysis of level of IFN-gamma, IL-2, IL-4, IL5, IL-6, IL-1 beta, IL-10, IL-12p70, KC/GRO, TNF-alpha, and IFN-alpha. For assessing IFN-gamma, IL-2, IL-4, IL5, IL-6, IL-1 beta, IL-10, IL-12p70, KC/GRO, and TNF alpha, an electrochemiluminescence assay was performed on duplicate samples using capture antibody precoated 96 well multispot plates from Meso Scale Discovery (MSD; Gaithersburg, Md., US). […] Plates were immediately read using SECTOR Imager 2400 and data was quantitated using Discovery Workbench software version 4.0 (MSD, Gaithersburg, Md., US). Mouse IFN alpha was measured with the Verikine mouse Interferon-Alpha ELISA kit (PBL, Piscataway, N.J., USA), according to the instructions of the manufacturer. After the addition of a stop solution, the absorbance at 450 nm was determined using BioTek μQuant microplate reader (Biotek; Winooski, Vt., USA). The ELISA data was quantitated using Biotek Gen5 software (Biotek; Winooski, Vt., USA). Data are represented as the mean of the fold-change of replicates.

TLR7 pathway = conditions: 2 hours and 6 hours following treatment with Compound 6
Method: Cytokine analysis (in CT26 tumor-bearing mice): Tumor and plasma samples were obtained at multiple time points following administration for cytokine analysis. RNA was isolated from treated tumors to assess induction of type I interferon- and NFκB-dependent gene expression. A panel of pro-inflammatory cytokines was measured from tumor tissue and plasma by multiplex protein measurement assay.

hTLR7 = molecular target: T1, hTLR7 (Homo sapiens, UniProt Q9NYK1); test: SEAP reporter gene assay in HEK293 cells stably transfected with human TLR receptor; type: cell-based; conditions: downstream hTLR7 and hTLR8
T1 construct: expressed in transfected cells; host or cells: HEK293
T1 sequence (Q9NYK1 27-1049): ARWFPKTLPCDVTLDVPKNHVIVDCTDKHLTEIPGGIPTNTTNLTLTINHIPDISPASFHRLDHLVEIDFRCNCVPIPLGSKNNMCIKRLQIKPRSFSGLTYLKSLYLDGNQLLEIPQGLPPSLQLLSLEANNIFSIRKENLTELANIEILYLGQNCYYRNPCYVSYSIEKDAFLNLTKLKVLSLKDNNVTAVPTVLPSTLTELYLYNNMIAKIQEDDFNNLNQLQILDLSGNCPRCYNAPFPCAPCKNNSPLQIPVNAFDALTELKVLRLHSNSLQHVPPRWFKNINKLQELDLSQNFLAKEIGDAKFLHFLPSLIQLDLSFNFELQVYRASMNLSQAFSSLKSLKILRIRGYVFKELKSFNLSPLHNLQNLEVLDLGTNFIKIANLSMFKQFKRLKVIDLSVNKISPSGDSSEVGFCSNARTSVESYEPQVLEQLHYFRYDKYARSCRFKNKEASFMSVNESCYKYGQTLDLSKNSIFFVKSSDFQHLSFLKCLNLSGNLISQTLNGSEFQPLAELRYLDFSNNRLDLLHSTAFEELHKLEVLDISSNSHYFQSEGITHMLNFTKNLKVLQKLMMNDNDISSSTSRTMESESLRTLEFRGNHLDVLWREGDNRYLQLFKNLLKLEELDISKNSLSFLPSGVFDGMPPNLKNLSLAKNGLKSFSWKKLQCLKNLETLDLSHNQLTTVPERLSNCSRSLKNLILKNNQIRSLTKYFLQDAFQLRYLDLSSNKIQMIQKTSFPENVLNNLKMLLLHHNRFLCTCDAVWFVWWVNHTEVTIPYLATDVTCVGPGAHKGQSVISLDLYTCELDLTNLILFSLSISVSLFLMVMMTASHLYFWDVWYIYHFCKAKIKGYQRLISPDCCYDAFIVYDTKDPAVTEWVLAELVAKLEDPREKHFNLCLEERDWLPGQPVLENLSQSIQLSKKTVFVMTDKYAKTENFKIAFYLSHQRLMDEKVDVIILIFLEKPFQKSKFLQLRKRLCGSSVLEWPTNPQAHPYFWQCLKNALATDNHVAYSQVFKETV
Excerpt: Parental cell lines (Null1 and Null1K, stably transfected with the SEAP reports but without hTLR receptor expression) were used as negative controls.

[1] = test system: proinflammatory cytokines IFNα, IFNγ, TNFα, IL-6 and IL-12; test: Plasma cytokine induction after Compound 6 or resiquimod with staggered RSLAIL-2 in CT26 model; type: in vivo, Balb/c mice
Method: The concentration of proinflammatory cytokines IFNα, IFNγ, TNFα, IL-6 and IL-12 was determined in plasma by multiplex protein measurement assay at indicated time points post dose.

[2] = test system: bilateral CT26 subcutaneous tumors
[3] = 2 hours after single 10 μg intratumoral administration
[4] = 6 hours after single 10 μg intratumoral administration
[5] = plasma, 10 μg intra/peritumoral

Excerpt for EMT6 tumor cells: In vivo model: Mice used were ˜10 weeks old female Balb/c strain with 2 million EMT6 tumor cells implanted on each flank. Cells were allowed to mature into tumors for 7 days reaching a volume of 75-150 mm^3 volume.
Measurements: Tumor volumes were collected by caliper measurements 2-3 times per week and calculated using formula: L×W^2/2 where L is tumor length and W is tumor width.

4-arm-PEG20k-CM-glycine-N-R848 [Compound 6]
IFNa fold change (treated/vehicle) (TLR7/8; [3]): + (+<50)
IL6 fold change (treated/vehicle) (TLR7/8; [3]): ++ (50≤++<200)
IL12 fold change (treated/vehicle) (TLR7/8; [3]): + (+<50)
KC/GRO fold change (treated/vehicle) (TLR7/8; [3]): + (+<50)
TNFa fold change (treated/vehicle) (TLR7/8; [3]): + (+<50)
IFNg fold change (treated/vehicle) (TLR7/8; [4]): +++ (10≤+++<20)
IL10 fold change (treated/vehicle) (TLR7/8; [4]): + (+<5)
concentration of systemic cytokines compared with tumor (IL-6, KC/GRO, TNF-α, IL-1β, IL-5, IFN-α, IFN-γ, IL-2, IL-12p70) (TLR7 pathway): significantly less than that in the tumor
fold higher concentration for reporter activation compared to resiquimod (hTLR7): > 20 fold
induction of cytokines in plasma, in words ([1]; 1 μg single intra/peritumoral dose): very modest induction of all cytokines in plasma
pro-inflammatory cytokine induction in blood, in words ([1]; 10 μg single intra/peritumoral dose): robust pro-inflammatory cytokine induction in blood
time of peak level of IFN-γ [1, 5]: 6 h
time of peak levels of IFNα, TNFα, IL-6 and IL-12 [1, 5]: 2 h
Survival Proportions (EMT6 tumor cells; day 0 after treatment start): ++++ (75%≤++++<100%)
Survival Proportions (EMT6 tumor cells; day 3 after treatment start): ++++ (75%≤++++<100%)
Survival Proportions (EMT6 tumor cells; day 8 after treatment start): ++++ (75%≤++++<100%)
Survival Proportions (EMT6 tumor cells; day 13 after treatment start): ++++ (75%≤++++<100%)
Survival Proportions (EMT6 tumor cells; day 15 after treatment start): ++++ (75%≤++++<100%)
Survival Proportions (EMT6 tumor cells; day 20 after treatment start): +++ (50%≤+++<75%)
Survival Proportions (EMT6 tumor cells; day 27 after treatment start): ++ (25%≤++<50%)
Survival Proportions (EMT6 tumor cells; day 34 after treatment start): + (0%≤+<25%)
Survival Proportions (EMT6 tumor cells; day 42 after treatment start): + (0%≤+<25%)
Survival Proportions (EMT6 tumor cells; day 48 after treatment start): + (0%≤+<25%)
Survival Proportions (EMT6 tumor cells; day 55 after treatment start): none
survival of the animals (EMT6 tumor cells; end of the study at day 55 after commencement of dosing): no surviving animals
CD8+ T cells in tumors ([2]; after combination treatment with RSLAIL-2 (0.8 mg/kg i.v. four days after Compound 6), day 7): selective Compound 6-dose dependent increase
relative fraction of regulatory T cells in tumors ([2]; after combination treatment with RSLAIL-2, day 7): decreased dramatically
CD8:Treg ratio in the blood ([2]; both treatment groups (10 μg or 0.1 μg) after RSLAIL-2): overall reduction
intratumoral neutrophils in treated tumors ([2]; one day after treatment, 10 μg dose): increase in intratumoral neutrophils
